The source of these data is patent publication US8796295B2, “Substituted benzamide analogs as mGluR5 negative allosteric modulators and methods of making and using the same” (priority 2009, dated 2014).

Each structure is given as a SMILES string.

In the test the target is rat mGluR5 (Rattus norvegicus (Rat), UniProt P31424). Put plainly: cell-based.
Sequence of rat mGluR5 (P31424 21-1203): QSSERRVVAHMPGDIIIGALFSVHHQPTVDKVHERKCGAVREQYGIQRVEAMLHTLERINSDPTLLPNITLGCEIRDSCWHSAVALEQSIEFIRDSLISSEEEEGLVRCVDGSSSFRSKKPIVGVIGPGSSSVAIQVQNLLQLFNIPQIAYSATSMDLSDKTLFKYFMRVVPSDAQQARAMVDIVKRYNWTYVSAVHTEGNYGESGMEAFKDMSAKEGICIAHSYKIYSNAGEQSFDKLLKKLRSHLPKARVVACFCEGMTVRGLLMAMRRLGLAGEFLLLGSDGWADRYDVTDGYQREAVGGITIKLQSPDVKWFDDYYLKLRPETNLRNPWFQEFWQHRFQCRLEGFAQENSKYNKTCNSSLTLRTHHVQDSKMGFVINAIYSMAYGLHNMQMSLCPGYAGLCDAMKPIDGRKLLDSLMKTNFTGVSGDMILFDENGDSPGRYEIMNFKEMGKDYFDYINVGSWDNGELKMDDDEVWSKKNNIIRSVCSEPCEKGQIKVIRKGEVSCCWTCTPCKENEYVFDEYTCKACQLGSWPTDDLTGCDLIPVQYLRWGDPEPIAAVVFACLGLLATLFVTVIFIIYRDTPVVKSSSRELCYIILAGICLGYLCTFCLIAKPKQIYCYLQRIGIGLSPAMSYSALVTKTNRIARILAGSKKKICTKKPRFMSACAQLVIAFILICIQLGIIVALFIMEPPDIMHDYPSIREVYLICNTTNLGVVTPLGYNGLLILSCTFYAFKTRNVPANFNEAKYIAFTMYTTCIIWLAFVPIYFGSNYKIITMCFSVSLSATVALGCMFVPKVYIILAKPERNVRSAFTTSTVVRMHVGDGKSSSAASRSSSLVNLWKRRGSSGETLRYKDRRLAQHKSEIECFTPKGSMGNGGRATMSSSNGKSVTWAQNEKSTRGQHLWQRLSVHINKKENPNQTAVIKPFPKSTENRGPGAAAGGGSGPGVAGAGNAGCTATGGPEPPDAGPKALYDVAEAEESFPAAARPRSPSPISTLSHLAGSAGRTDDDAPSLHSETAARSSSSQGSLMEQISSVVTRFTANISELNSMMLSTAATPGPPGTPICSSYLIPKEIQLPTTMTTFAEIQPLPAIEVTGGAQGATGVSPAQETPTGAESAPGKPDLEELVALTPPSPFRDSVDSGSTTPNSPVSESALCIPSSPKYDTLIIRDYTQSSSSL
Protocol: The cells were loaded with a Ca2+-sensitive fluorescent dye (e.g., Fluo-4), and the plates were washed and placed in the FDSS instrument. Test compound was applied to cells 3 seconds after baseline readings were taken. Cells were incubated with the test compounds for 140 seconds and then stimulated with an EC20 concentration of an mGluR5 agonist (e.g., glutamate, 3,5-dihydroxyphenylglycine, or quisqualate); 60-80 seconds later an EC80 concentration of agonist was added and readings taken for an additional 40 seconds. Data were collected at 1 Hz. […] Concentration response curves were generated using a four parameter logistical equation.
The above described assay was operated in two modes. In the first mode (utilizing a triple add protocol), a range of concentrations of the present compounds were added to cells, followed by two single fixed concentrations of agonist (EC20 followed by EC80). If a compound acted as a potentiator, an EC50 value for potentiation of the EC20 response and a maximum extent of potentiation by the compound at this concentration of agonist was determined by non-linear curve fitting. If a compound acted as an antagonist, an IC50 value for antagonism of the EC80 response and a maximum extent of antagonism by the compound at this concentration of agonist was determined by non-linear curve fitting. In the second mode (utilizing a double add protocol), several fixed concentrations of the present compounds were added to various wells on a plate, followed by a range of concentrations of agonist for each concentration of present compound; the EC50 values for the agonist at each concentration of compound were determined by nonlinear curve fitting. A decrease in the EC50 value of the agonist with increasing concentrations of the present compounds (a leftward shift of the agonist concentration-response curve) is an indication of the degree of mGluR5 positive allosteric modulation at a given concentration of the present compound. An increase in the EC50 value of the agonist with increasing concentrations of the present compounds (a rightward shift of the agonist concentration response curve) is an indication of the degree of mGluR5 antagonism at a given concentration of the present compound. The second mode also indicates whether the present compounds also affect the maximum response to mGluR5 to agonists.
The mGluR5 activity was determined using the metabotropic glutamate receptor activity assays in human embryonic kidney cells as described herein, wherein the human embryonic kidney cells were transfected with rat mGluR5. The mGluR5 activity data for some compounds are shown as the average of at least three experiments with the standard error in these cases. If no error is indicated for the mGluR5 activity, the values given represent the results from a single experiment or the average of two experiments.
In general, IC50 refers to the midpoint of a concentration-inhibition curve. A higher IC50 goes with weaker potency in that assay. `CCc1ccnc(NC(=O)c2cc(Cl)cc(Oc3cncnc3)c2)c1` yielded an IC50 of 4160 nM. This lies in the single-digit micromolar range. To `Cc1csc(NC(=O)c2cc(Cl)cc(Oc3cccnc3)c2)n1` belongs 6.5 nM. With `O=C(Nc1nc(C(F)(F)F)cs1)c1cccc(Oc2cccnc2)c1` the figure was greater than 30000 nM; with `O=C(Nc1ncccc1F)c1cc(Cl)cc(Oc2cncnc2)c1`, greater than 10000 nM; with `CN(c1cccnc1)c1cc(Cl)cc(C(=O)Nc2nccs2)c1`, 648 nM. The compound `COc1cccc(NC(=O)c2cc(F)cc(Oc3cncnc3)c2)n1` gave an IC50 of 1060 nM. This IC50 lies about 1.6-fold higher than the previous one. With `Cc1cncc(NC(=O)c2cc(Cl)cc(N(C)c3cncnc3)c2)c1` the figure was greater than 10000 nM; with `CN(c1cccnc1)c1cccc(C(=O)Nc2nccs2)c1`, 3560 nM. To `CN(c1cncnc1)c1cc(Cl)cc(C(=O)Nc2ccc(Cl)cn2)c1` belongs 929 nM; to `Cc1nc(NC(=O)c2cc(Cl)cc(Oc3cncnc3)c2)sc1Br`, 3700 nM. To `O=C(Nc1nc(C2CC2)cs1)c1cc(Cl)cc(Oc2cncnc2)c1` belongs 198 nM; to `CN(c1cccnc1)c1cc(F)cc(C(=O)Nc2nc(C#N)cs2)c1`, 2190 nM; to `Cc1csc(NC(=O)c2cccc(Oc3cccnc3)c2)n1`, 296 nM. In turn, `CN(c1cncnc1)c1cc(Cl)cc(C(=O)Nc2cc(Cl)ccn2)c1` returned an IC50 of 262 nM. This IC50 and that of the compound before are within 1.5-fold of each other. To `Cc1csc(NC(=O)c2cc(F)cc(N(C)c3cccnc3)c2)n1` belongs 176 nM.

Turning to `O=C(Nc1nccs1)c1cccc(Oc2cncnc2)c1`, the 50% inhibitory concentration (IC50) came to 4550 nM. Consider `O=C(Nc1ccc(Cl)cn1)c1cc(Cl)cc(Oc2cncnc2)c1`, for which the 50% inhibitory concentration (IC50) was 87 nM.

Consider `O=C(Nc1nc(C2CC2)cs1)c1cc(F)cc(Oc2cncnc2)c1`, for which the IC50 was 345 nM. As for `Cc1nc(NC(=O)c2cc(Cl)cc(Oc3cncnc3)c2)ccc1F`, the IC50 was 54 nM. This IC50 lies about 6.4-fold lower than the previous one.

In the case of `Cc1nc(NC(=O)c2cc(F)cc(Oc3cncnc3)c2)ccc1F`, the IC50 is 360 nM. `O=C(Nc1nc(C(F)F)cs1)c1cc(Cl)cc(Oc2cncnc2)c1` displayed an IC50 of 389 nM. With `O=C(Nc1ncc(F)cc1F)c1cc(Cl)cc(Oc2cncnc2)c1` the figure was greater than 30000 nM; with `Cc1cncc(NC(=O)c2cc(F)cc(N(C)c3cncnc3)c2)c1`, greater than 10000 nM. With `Cc1cncc(NC(=O)c2cc(F)cc(Oc3cncnc3)c2)c1` the figure was greater than 10000 nM; with `Cc1nc(NC(=O)c2cc(F)cc(Oc3cncnc3)c2)sc1C(C)(C)C`, greater than 10000 nM. With `Cc1nsc(NC(=O)c2cccc(Oc3cccnc3)c2)n1` the figure was greater than 30000 nM; with `CN(c1cccnc1)c1cc(F)cc(C(=O)Nc2nccs2)c1`, 1250 nM; with `O=C(Nc1ccc(F)cn1)c1cccc(Oc2cccnc2)c1`, 7450 nM. For the compound `Cc1csc(NC(=O)c2cc(Cl)cc(N(C)c3cccnc3)c2)n1`, the half-inhibitory concentration (IC50) came to 49 nM. Compared with the last compound, the IC50 is about 150-fold lower. With `O=C(Nc1ccncn1)c1cccc(Oc2cccnc2)c1` the figure was greater than 10000 nM; with `Cc1csc(NC(=O)c2cccc(Oc3cncnc3)c2)n1`, 65 nM; with `N#Cc1csc(NC(=O)c2cccc(Oc3cccnc3)c2)n1`, 3590 nM. With `Cc1cc(NC(=O)c2cc(Cl)cc(Oc3cncnc3)c2)ncc1F`, the half-inhibitory concentration (IC50) worked out at 2780 nM. To `O=C(Nc1ccc(F)c(CF)n1)c1cc(F)cc(Oc2cncnc2)c1` belongs 4540 nM; to `O=C(Nc1nccs1)c1cc(F)cc(Oc2cncnc2)c1`, 5160 nM.

For the compound `CN(c1cncnc1)c1cc(F)cc(C(=O)Nc2ccc(Cl)cn2)c1`, the half-inhibitory concentration (IC50) is greater than 30000 nM. To `CN(c1cncnc1)c1cc(F)cc(C(=O)Nc2cc(Cl)ccn2)c1` belongs 106 nM.

The compound `Cc1cc(Oc2cncnc2)cc(C(=O)Nc2ccc(F)cn2)c1` registered an IC50 of 22 nM.

Compound `O=C(Nc1ccc(F)c(C(F)F)n1)c1cc(Cl)cc(Oc2cncnc2)c1` came in with an IC50 of 779 nM. With `Cc1cncc(NC(=O)c2cc(Cl)cc(Oc3cncnc3)c2)c1` the figure was greater than 10000 nM. With `Cc1nc(NC(=O)c2cc(F)cc(Oc3cncnc3)c2)sc1F` the figure was 52 nM.
